Active and inactive are the calls of the source.
Legend:
[1] = SNU-C1 cell viability reduction, dose response, CellTiter-Glo luminescence (AID 1117323); type: functional, cell-based
[2] = CellTiter-Glo luminescence survival assay, SW480 colon tumor line, concentration-response curve, half-maximal inhibitory concentration (AID 1117338); type: functional
[3] = cytotoxicity toward Colo320 cells – cell-based, CellTiter-Glo luminescence, IC50, dose response (AID 1117334); type: functional; settings: COLO 320
[4] = Reduced DLD-1 viability, concentration-response, CellTiter-Glo luminescence (AID 1117352); type: functional
[5] = cytotoxicity toward HCT116 cells – cell-based, CellTiter-Glo luminescence, IC50, dose response (AID 1117332); type: functional; settings: HCT-116
[6] = RKO cell viability reduction, dose response, CellTiter-Glo luminescence (AID 1117322); type: functional
[7] = cytotoxicity toward HT-29 cells – cell-based, CellTiter-Glo luminescence, IC50, dose response (AID 1117330); type: functional
[8] = target: Mu-type opioid receptor (Homo sapiens, UniProt P35372); type: functional, cell-based;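 note: U2OS cells with beta-arrestin recruitment to OPRM1 by beta-gal complementation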
[9] = target: 5-hydroxytryptamine receptor 2A (Mus musculus, UniProt P35363); type: functional, cell-based;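 note: CHO-K1 cells with tagged receptor and beta-arrestin; agonist potency measured as compound-induced activation of the receptor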
[10] = HCT116 cell viability decrease, GSK3B pretreatment – CellTiter-Glo, IC50, dose response (AID 1117339); type: functional; settings: HCT-116
[11] = viability loss of HPDE-C7K cells – cell-based, fluorescence, HTS, primary screen (AID 431); type: functional; settings: Homo sapiens
[12] = HPDE-C7 pancreatic duct cell viability loss – fluorescence, HTS (AID 430); type: functional, cell-based; settings: Homo sapiens
[13] = P. falciparum Dd2 growth inhibitors, dose response, SYBR Green, cherry-picked samples (AID 1159567); type: functional, cell-based
[14] = Luminescence Cell-Based Dose Response HTS to Identify Activators of Luciferase Translation or Activity in H4 […] Cells. [Related pubchem assays: 1829 (Project Summary), 1814 (Primary HTS)]; type: functional
[15] = Luminescence Cell-Based Dose Response to Identify Activators of 5'UTR Stem-Loop Driven Prion Protein mRNA Translation in H4-C Neuroglioblastoma Cells. [Related pubchem assays: 1829 (Project Summary), 1814 (Primary HTS)]; type: functional
[16] = Luminescence Cell-Based Dose Confirmation to Identify Activators of 5'UTR Stem-Loop Driven Alpha-Synuclein mRNA Translation in H4 Neuroglioblastoma Cells. [Related pubchem assays: 1829 (Project Summary), 1814 (Primary HTS)]; type: functional
[17] = Luminescence Cell-Based Dose Response to Identify Activators of Luciferase Translation or Activity in H4-C Neuroglioblastoma Cells. [Related pubchem assays: 1829 (Project Summary), 1814 (Primary HTS)]; type: functional
[18] = Trypanosoma cruzi growth suppression in host cells – NIH3T3 host cells, beta-gal luminescence, confirmation (AID 2044); type: functional, cell-based;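 note: intracellular parasites grown in NIH/3T3 mouse fibroblasts as host cells; luminescent beta-galactosidase reporter signal from transgenic T. cruzi replicating inside host cells; inhibitors lower the luminescence signal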
[19] = NIH3T3 cell viability loss – ATP luminescence, mouse fibroblasts, counter-screen, dose response (AID 2010); type: functional, cell-based; settings: NIH3T3;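 note: cells exposed to compound for about 90 hours before reading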
[20] = Luminescence Cell-Based Dose Confirmation HTS to Identify Activators of 5'UTR Stem-Loop Driven Alpha-Synuclein mRNA Translation in H4 Neuroglioblastoma Cells. [Related pubchem assays: 1829 (Project Summary), 1814 (Primary HTS)]; type: functional
[21] = cells
[22] = test system: H4; assay: Luminescence Cell-Based Dose Response HTS to Identify Activators of 5'UTR Stem-Loop Driven Prion Protein mRNA Translation in H4 Neuroglioblastoma Cells. [Related pubchem assays: 1829 (Project Summary), 1814 (Primary HTS)]; type: functional; settings: Homo sapiens
[23] = blockers of HIV-1 envelope-mediated cell-cell fusion – cherry-pick, dose response (AID 652057); type: functional, cell-based
[24] = Luminescence Cell-Based Dose Response HTS to Identify Inhibitors of 5'UTR Stem-Loop Driven Prion Protein mRNA Translation in H4 Neuroglioblastoma Cells. [Related pubchem assays: 1827 (Project Summary), 1813 (Primary HTS)]; type: functional
[25] = cells; type: functional, cell-based
[26] = off-target signal loss in HeLa-CEM21 co-culture – HeLa F-luc CTL cells, cherry-picked, counter-screen for HIV-1 Env fusion inhibitor project, dose response (AID 652040); type: functional, cell-based;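 note: potency for signal decrease marking cytotoxic or nonspecific inhibition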
[27] = HIV-1 AD8 envelope cell-cell fusion blockers – cherry-pick, dose response (AID 652062); type: functional, cell-based;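 note: luciferase signal from cell-cell fusion driven by HIV-1 clade B AD8 Env; potency is for inhibitors of fusion seen as a drop in luminescence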
[28] = alpha-synuclein stem-loop luciferase translation blockers – H4 neuroglioma cells, luminescence, confirmation (AID 1988); type: functional, cell-based
[29] = viability loss in CEM21 cells – cell-based, CellTiter-Glo luminescence, cherry-picked, cytotoxicity control for viral fusion inhibitor project, dose response (AID 652042); type: functional;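 note: potency for signal decrease meaning cytotoxicity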
[30] = target: T1, Heat shock factor protein 1 (Mus musculus, UniProt P38532); assay: decrease of HSF1-responsive luciferase luminescence – cell-based, NIH3T3, dose retest, confirmation (AID 2382); type: functional;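 note: NIH3T3 fibroblasts with HSF1-driven luciferase reporter stressed by proteasome inhibitor MG132; luminescence from HSF1-driven luciferase expression after 8 hours of MG132 stress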
T1 sequence (P38532 whole entry): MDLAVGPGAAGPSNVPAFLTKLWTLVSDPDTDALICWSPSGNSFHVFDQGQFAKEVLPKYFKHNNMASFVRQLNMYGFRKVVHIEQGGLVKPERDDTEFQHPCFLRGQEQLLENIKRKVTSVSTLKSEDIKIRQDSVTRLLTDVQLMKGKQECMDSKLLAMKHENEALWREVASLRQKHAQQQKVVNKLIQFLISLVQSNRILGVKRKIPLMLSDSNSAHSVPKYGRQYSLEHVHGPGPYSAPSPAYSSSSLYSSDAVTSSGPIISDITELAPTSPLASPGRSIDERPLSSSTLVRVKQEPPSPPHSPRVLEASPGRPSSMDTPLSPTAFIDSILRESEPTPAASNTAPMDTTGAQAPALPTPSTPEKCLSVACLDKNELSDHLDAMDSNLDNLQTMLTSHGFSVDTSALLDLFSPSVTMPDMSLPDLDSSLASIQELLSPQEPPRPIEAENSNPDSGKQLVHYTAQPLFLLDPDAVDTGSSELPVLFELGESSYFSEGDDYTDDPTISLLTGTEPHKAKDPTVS

[31] = luciferase reporter signal suppression in cells – H4 neuroglioma cells, luminescence, dose response (AID 1990); type: functional, cell-based
[32] = cells; type: functional, cell-based; remark: listed apart in the source
[33] = blockers of HIV-1 ZM109 envelope-driven cell-cell fusion – HeLa effector, CEM target cells, luciferase, cherry-pick, dose response (AID 652058); type: functional, cell-based;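 note: luciferase signal from HIV-1 Env mediated cell-cell fusion of effector and target cells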
[34] = non-specific 3'UTR reporter inhibition in Clone20-Shn3RL – cell-based, Renilla luciferase, cherry-picked, counter-screen for Shn3 inhibitor project, dose response (AID 624133); type: functional
[35] = loss of viability in HepG2 cells – cell-based, CellTiter-Glo, cherry-picked, cytotoxicity control for Shn3 inhibitor project, dose response (AID 624134); type: functional
[36] = reduction of Shn3 3'UTR-driven luciferase in osteoblasts – cell-based, Clone20 osteoblasts, firefly luciferase, cherry-picked, dose response (AID 624132); type: functional;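 note: firefly luciferase luminescence from reporter carrying the Shn3 3'UTR in osteoblasts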
[37] = viability of uninfected HEp-2 cells – cell-based, HTS, cytotoxicity control for RSV inhibitor project, dose response (AID 2410); type: functional; settings: human respiratory syncytial virus
[38] = target: T2, Rac GTPase-activating protein 1 (Homo sapiens, UniProt Q9H0H5); assay: blockers of MgcRacGAP-driven Rac1 GTP hydrolysis – biochemical, ADP Hunter fluorescence, primary and confirmatory, confirmation (AID 624330); type: functional
T2 sequence (Q9H0H5 whole entry): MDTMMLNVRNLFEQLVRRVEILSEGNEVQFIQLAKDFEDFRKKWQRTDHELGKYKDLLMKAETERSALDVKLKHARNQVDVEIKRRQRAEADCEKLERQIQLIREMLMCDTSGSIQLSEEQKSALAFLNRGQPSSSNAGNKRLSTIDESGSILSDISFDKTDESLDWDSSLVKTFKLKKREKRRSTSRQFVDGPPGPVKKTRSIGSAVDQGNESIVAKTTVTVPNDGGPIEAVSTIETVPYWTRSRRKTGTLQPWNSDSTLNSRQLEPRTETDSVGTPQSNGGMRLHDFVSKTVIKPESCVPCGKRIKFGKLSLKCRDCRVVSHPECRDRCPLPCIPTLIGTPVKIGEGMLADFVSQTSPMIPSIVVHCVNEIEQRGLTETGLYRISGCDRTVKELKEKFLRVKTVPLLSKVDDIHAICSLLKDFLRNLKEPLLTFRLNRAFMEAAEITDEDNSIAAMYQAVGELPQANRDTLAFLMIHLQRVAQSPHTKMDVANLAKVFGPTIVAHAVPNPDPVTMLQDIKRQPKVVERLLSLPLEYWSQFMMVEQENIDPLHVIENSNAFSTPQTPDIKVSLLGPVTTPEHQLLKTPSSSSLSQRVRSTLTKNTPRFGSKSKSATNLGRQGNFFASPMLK

[39] = viability loss in HeLa cells – cytotoxicity control for MgcRacGAP inhibitor project, dose response (AID 624300); type: functional
[40] = microbe, parasite or virus in culture; type: functional; settings: Mycobacterium tuberculosis

Chain of 5-hydroxytryptamine receptor 2A (P35363 whole entry): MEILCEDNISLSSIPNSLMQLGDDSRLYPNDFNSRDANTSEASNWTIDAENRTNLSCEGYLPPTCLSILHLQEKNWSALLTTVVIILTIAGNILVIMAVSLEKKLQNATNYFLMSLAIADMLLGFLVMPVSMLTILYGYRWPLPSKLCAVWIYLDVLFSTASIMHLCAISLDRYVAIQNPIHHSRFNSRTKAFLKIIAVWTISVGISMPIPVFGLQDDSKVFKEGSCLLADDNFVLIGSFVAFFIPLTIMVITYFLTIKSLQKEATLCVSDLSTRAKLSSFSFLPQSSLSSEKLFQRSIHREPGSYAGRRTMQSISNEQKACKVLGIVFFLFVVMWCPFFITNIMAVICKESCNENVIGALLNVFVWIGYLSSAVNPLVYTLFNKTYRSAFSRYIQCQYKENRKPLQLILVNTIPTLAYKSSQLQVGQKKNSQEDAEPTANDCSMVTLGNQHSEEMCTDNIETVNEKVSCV
Chain of Mu-type opioid receptor (P35372 whole entry): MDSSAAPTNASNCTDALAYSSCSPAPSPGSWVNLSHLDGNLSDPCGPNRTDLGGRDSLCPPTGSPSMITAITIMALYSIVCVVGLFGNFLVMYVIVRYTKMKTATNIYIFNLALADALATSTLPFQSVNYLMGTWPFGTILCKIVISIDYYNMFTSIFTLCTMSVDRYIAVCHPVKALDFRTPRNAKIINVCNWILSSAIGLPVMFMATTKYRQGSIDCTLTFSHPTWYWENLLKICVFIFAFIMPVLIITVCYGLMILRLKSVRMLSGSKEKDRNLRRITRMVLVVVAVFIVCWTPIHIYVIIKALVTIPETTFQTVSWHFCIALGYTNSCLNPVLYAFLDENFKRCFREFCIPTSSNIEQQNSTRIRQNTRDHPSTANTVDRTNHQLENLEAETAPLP

CN(C)c1ccc(C(=C2C=CC(=[N+](C)C)C=C2)c2ccc(N(C)C)cc2)cc1 [GENTIAN VIOLET]
active: IC50 [1] 0.394 µM | IC50 [2] 0.528 µM | IC50 [3] 2.05 µM | IC50 [4] 0.471 µM | IC50 [5] 0.514 µM | IC50 [6] 0.994 µM | IC50 [7] 0.466 µM

O=C1NC[C@H](Cc2ccccc2)N(C[C@H]2CCCN2C[C@H](Cc2ccc(O)cc2)N2C[C@H](Cc3ccc(O)cc3)N(CC3CCCCCC3)C(=O)C2=O)C1=O
inactive: EC50 [8] 92.5 µM
active: EC50 [9] 4.46 µM

C=CCN1CCc2c(cc(O)c(O)c2Br)[C@@H](c2ccccc2)C1
inactive: EC50 [8] 92.5 µM
active: EC50 [9] 0.0982 µM

c1nc2nc[nH]c(N3CCN(Cc4ccc5c(c4)OCO5)CC3)c-2n1
active: EC50 [9] 0.59 µM
inactive: EC50 [8] 92.5 µM

CC1CCC(C(C)C)C(OC(=O)c2ccccc2O)C1 (stereo not drawn)
inactive: IC50 [1] > 20 µM | IC50 [2] > 20 µM | IC50 [3] > 20 µM | IC50 [10] > 20 µM | IC50 [4] > 20 µM | IC50 [5] > 20 µM | IC50 [6] > 20 µM | IC50 [7] > 20 µM

COc1ccc(N(Cc2cc3cc(OC)ccc3nc2O)S(C)(=O)=O)cc1
> 20 µM (not active): EC50 [11] | EC50 [12]

COc1ccc(CN2CC3(CCN(C(=O)c4ccccc4)CC3)c3c([nH]c4cc(OC)ccc34)[C@@H]2CO)cc1
active: AC50 [13] 3 µM

Cc1ccc(-c2csc(NC(=O)C3=COCCO3)n2)cc1C
inconclusive: EC50 [14] < 0.1 µM
active: EC50 [15] 2.75 µM | EC50 [16] 0.353 µM | EC50 [17] 0.301 µM | EC50 [18] 0.846 µM
> 60 µM (not active): EC50 [19]

CN(C)CCN(C(=O)c1ccc2c(c1)OCCO2)c1nc2ccc(Cl)cc2s1
> 120 µM (not active): EC50 [20] | EC50 [22]
active: EC50 [14] 15.6 µM | EC50 [18] < 0.1 µM | EC50 [21] 0.088 µM
> 60 µM (not active): EC50 [19]

COc1cccc(CC2(CO)CCCN(Cc3cn(C)c4ccccc34)C2)c1 (stereo not drawn)
active: EC50 [18] < 0.1 µM | EC50 [19] 20 µM | EC50 [21] 0.051 µM

COc1ccc2c3c(n(C)c2c1)[C@H](CO)N(Cc1ccccc1F)CC31CCN(CC2CC2)CC1
active: AC50 [13] 3.46 µM

COc1ccc(C(=O)c2ccccc2O)c(O)c1 [DIOXYBENZONE]
inactive: IC50 [2] > 20 µM | IC50 [3] > 20 µM | IC50 [4] > 20 µM | IC50 [5] > 20 µM | IC50 [6] > 20 µM | IC50 [7] > 20 µM

COc1ccc2cc3c(N)nn(C(=O)Cc4c[nH]c5ccccc45)c3nc2c1
> 350 µM (not active): EC50 [25] | EC50 [32]
active: AC50 [23] 0.352 µM | EC50 [24] 23 µM | AC50 [26] 0.512 µM | AC50 [27] 0.563 µM | EC50 [28] 11.5 µM | AC50 [29] 7.5 µM | EC50 [30] 0.269 µM | EC50 [31] < 0.1 µM | AC50 [33] 0.261 µM

CCC1Nc2cc(Cl)c(S(N)(=O)=O)cc2S(=O)(=O)N1 (stereo not drawn) [ETHIAZIDE]
inactive: IC50 [1] > 20 µM | IC50 [2] > 6.67 µM | IC50 [3] > 20 µM | IC50 [10] > 20 µM | IC50 [4] > 20 µM | IC50 [5] > 20 µM | IC50 [6] > 20 µM | IC50 [7] > 20 µM

CC(=N)/C(C#N)=C(/O)CSc1nc2cc(C)ccc2[nH]1
active: EC50 [14] < 0.1 µM | EC50 [15] 0.321 µM | EC50 [20] 1.68 µM | EC50 [16] 0.424 µM | EC50 [17] 0.296 µM

FC(F)(F)c1nc(-c2cccs2)ncc1-c1nnnn1-c1ccc(Cl)cc1
active: AC50 [23] 42.6 µM | AC50 [34] 1.9 µM | AC50 [26] 29 µM | AC50 [27] 2.87 µM | AC50 [29] 23 µM | AC50 [35] 29.1 µM | AC50 [36] 2.1 µM

CCN(CCNCC(O)COc1ccccc1C(C)C)c1cccc(C)c1 (stereo not drawn)
active: CC50 [37] 20 µM | IC50 [38] 66.7 µM | CC50 [39] 36.1 µM | CC50 [40] 14.2 µM

CCCS(=O)(=O)N1CCC(C(=O)NCCc2ccccc2)CC1
> 20 µM (not active): EC50 [11] | EC50 [12]

CC1CN(c2oc(COc3ccc(Cl)cc3Cl)nc2C#N)CC(C)O1 (stereo not drawn)
> 20 µM (not active): EC50 [11] | EC50 [12]

Cc1ccsc1C(=O)C1CCCN(Cc2cnn(C(C)C)c2)C1 (stereo not drawn)
active: EC50 [18] < 0.1 µM | EC50 [21] 0.01 µM
inconclusive: EC50 [19] > 60 µM
